Data from patent US11840527B2, “Non-fused thiophene derivatives and their uses” (ENYO PHARMA, priority 2018, dated 2023).

How the values were obtained:
Assay in all cases: Stability of Fe-S cluster binding of purified NEET protein (absorbance 458 nm)
Type in all cases: biochemical
[1] = target: T1, CISD1 Gene Product (mitoNEET) (Homo sapiens, UniProt Q9NZ45)
T1 sequence (Q9NZ45 33-108 limits assumed): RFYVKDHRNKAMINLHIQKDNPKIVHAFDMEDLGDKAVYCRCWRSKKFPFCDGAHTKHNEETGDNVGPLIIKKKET
Procedure: (§1) The modulator effect on the NEET proteins encoded by human CISD1, CISD2, and CISD3 genes by the compounds of the invention has been tested and is reported below. Particularly, the biochemical function of the NEET proteins is measured by the stability of Fe—S cluster binding of the purified NEET proteins.
(§2) The Fe—S cluster binding capacity of NEET proteins is known to be coordinated by four amino-acids in a stretch of 16 (three Cysteine and one Histidine). As the lability of the Fe—S cluster of NEET proteins is sensitive to the environment, cluster stability measurements are one of the measures of interactions of NEET proteins with small molecules and compounds. NEET protein/2Fe-2S cluster stability can be assessed by monitoring the decay in absorbance of its characteristic 458-nm peak (characteristic of the oxidized 2Fe-2S cluster) over time. Each NEET protein (mitoNEET, NAF-1 and Miner 2) was tested for its Fe—S binding in the absence or presence of a compound according to the invention (see table 3 below). The rate of cluster release (time in minutes to achieve 50% loss of bound Fe—S cluster) was compared for each NEET protein in the presence of one of the compounds of the invention (in a 1:3 protein:compound molar ratio) relative to each protein alone.
(§3) At pH 6, all the three NEET proteins (mitoNEET, NAF-1 and Miner 2) have a characteristic rate of loss of the bound Fe—S cluster that can be measured by the decrease of absorbance at wavelength 458 nm over time, using a spectrophotometer. Thus, Bis-Tris buffer (100 mM Bis-Tris pH6, 100 mM Nacl) was used at pH 6 to dilute either DMSO (Blank sample: Bis-Tris Buffer pH 6, 66 μM DMSO), DMSO and one of the three NEET proteins (Control sample: Bis-Tris Buffer pH 6, 66 μM DMSO, 20 μM purified NEET protein) or DMSO, one of the three NEET proteins and a compound of the invention (Test sample: Bis-Tris Buffer pH 6, 66 μM DMSO, 20 μM purified NEET protein, 60 μM compound of the invention).
(§4) A reaction mix containing DMSO diluted in the Bis-Tris Buffer with or without a compound of the invention was prepared. The purified NEET protein was the last component added to the reaction mix which was then aliquoted into 4 replicates in 96 wells plates. The absorbance at wavelength 458 nm was taken at 5 minutes intervals at 37° C. with a spectrofluorimeter. The assay run time for CISD2 gene product (NAF-1) was 500 minutes and 180 minutes for both the CISD 1 gene product (mitoNEET) and the CISD3 gene product (Miner 2).
(§5) In addition to time monitoring, residual bound Fe—S cluster to NEET protein was measured at the final point of the spectrometry assay for each Test sample and compared to the Control sample data (in parenthesis table 3). This residual binding is measured by the differential percentage between the absorbance 458 nm at time zero and the absorbance 458 nm at the end of the experiment (i.e. respectively 500 or 180 minutes as described hereabove), showing the percentage of NEET protein still able to bind Fe—S cluster.
(§6) Analysis of the absorbance enables the time for which 50% loss of bound Fe—S cluster is reached (i.e. a 50% absorbance decrease at 458 nm) for each Test sample and each Control sample (in parenthesis table 3) to be determined. The data are then compared to determine whether the compound of the invention stabilizes or destabilizes the NEET protein/Fe—S cluster binding.
(§7) Stabilisers of Fe—S cluster binding by the NEET proteins slow the release of bound Fe—S (i.e. increase the time needed to reach 50% Fe—S cluster bound loss by more than 25% for the Test sample compared to the Control sample). As illustrated by table 3, at the concentrations tested, stabilisers of CISD1 Gene Product (mitoNEET) are the compounds #9, #18, #26, #2, #1, and #42. Stabilisers of CISD2 Gene Product (NAF-1) are the compounds #2, #1, and #40. Stabilisers of CISD3 Gene Product (Miner2) are the compounds #9, #18, #26, #2, #1, and #42.

[2] = target: T2, CISD2 Gene Product (NAF-1) (Homo sapiens, UniProt Q8N5K1)
T2 sequence (Q8N5K1 57-135 limits assumed): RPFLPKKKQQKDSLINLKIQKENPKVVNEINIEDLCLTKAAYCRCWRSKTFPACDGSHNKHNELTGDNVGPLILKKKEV
Procedure: as §1, §2, §3, §4, §5, §6, §7

[3] = target: T3, CISD3 Gene Product (Miner2) (Homo sapiens, UniProt P0C7P0)
T3 sequence (P0C7P0 15-127): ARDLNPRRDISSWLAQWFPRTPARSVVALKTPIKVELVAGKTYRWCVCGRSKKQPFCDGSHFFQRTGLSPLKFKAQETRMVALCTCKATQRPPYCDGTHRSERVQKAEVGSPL
Procedure: as §1, §2, §3, §4, §5, §6, §7

O=C(Nc1scc(-c2ccc(Cl)c(F)c2)c1C(=O)O)c1ccccc1 [Compound #2, 2-Benzamido-4-(4-chloro-3-fluoro-phenyl)thiophene-3-carboxylic acid]
Residual cluster bound at end of experiment (Percentage Absorbance 458 nm at time zero) ([1]; at 180 minutes, 60 μM compound, vehicle control 16%): 36% (16%)
Stabiliser of Fe—S cluster binding (time to 50% loss increased by more than 25% vs control) ([1]; at the concentrations tested): stabilisers
Time (in minutes) to achieve 50% loss of bound cluster (Absorbance 458 nm) ([1]; pH 6, 37° C., 20 μM protein, 60 μM compound, run time 180 minutes, vehicle control 80): during 180 minutes
Residual cluster bound at end of experiment (Percentage Absorbance 458 nm at time zero) ([2]; at 500 minutes, 60 μM compound, vehicle control 3%): 18% (3%)
Stabiliser of Fe—S cluster binding (time to 50% loss increased by more than 25% vs control) ([2]; at the concentrations tested): Stabilisers
Time (in minutes) to achieve 50% loss of bound cluster (Absorbance 458 nm) ([2]; pH 6, 37° C., 20 μM protein, 60 μM compound, run time 500 minutes, vehicle control 310): during 500 minutes
Residual cluster bound at end of experiment (Percentage Absorbance 458 nm at time zero) ([3]; CISD3 gene product, at 180 minutes, 60 μM compound, vehicle control (DMSO) 11%): 52% (11%)
Stabiliser of Fe—S cluster binding (time to 50% loss increased by more than 25% vs control) ([3]; Miner2, at the concentrations tested): Stabilisers
Time (in minutes) to achieve 50% loss of bound cluster (Absorbance 458 nm) ([3]; Miner2, pH 6, 37° C., 20 μM protein, 60 μM compound, run time 180 minutes, vehicle control 60): during 180 minutes
